# According to ChEMBL document CHEMBL3352108, “Structure-activity relationships of the thujaplicins for inhibition of human tyrosinase” (Bioorg Med Chem, 2014):
# The source made the active and inactive calls. No cut-off for these calls is given here.
# Assays:
# Tyrosinase [1] = target: T1, Tyrosinase (Agaricus bisporus, UniProt O42713)
# T1 sequence (O42713 whole entry): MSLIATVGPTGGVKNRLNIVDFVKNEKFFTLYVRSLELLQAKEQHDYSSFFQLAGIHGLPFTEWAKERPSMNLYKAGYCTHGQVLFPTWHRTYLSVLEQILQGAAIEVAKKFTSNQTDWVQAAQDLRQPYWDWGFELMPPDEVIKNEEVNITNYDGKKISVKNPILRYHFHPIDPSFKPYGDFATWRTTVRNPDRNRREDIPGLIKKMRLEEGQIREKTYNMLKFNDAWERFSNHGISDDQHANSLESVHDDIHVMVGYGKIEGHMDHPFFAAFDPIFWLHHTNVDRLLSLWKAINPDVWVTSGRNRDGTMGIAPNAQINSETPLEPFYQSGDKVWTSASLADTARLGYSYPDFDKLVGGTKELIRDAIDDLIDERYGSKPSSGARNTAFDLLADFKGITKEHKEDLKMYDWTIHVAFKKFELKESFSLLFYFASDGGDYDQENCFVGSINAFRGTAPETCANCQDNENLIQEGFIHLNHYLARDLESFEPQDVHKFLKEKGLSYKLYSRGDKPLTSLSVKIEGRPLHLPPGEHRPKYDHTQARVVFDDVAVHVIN
# Description: Inhibition of mushroom tyrosinase
# Tyrosinase [2] = target: T1, Tyrosinase; remark: listed apart in the source
# Description: Non-competitive inhibition of mushroom tyrosinase
# Tyrosinase [3] = target: T2, Tyrosinase (Homo sapiens, UniProt P14679); experiment: Inhibition of tyrosinase in human HMV-2 melanoma cells after 5 mins by spectrophotometry; assay type: cell-based
# T2 sequence (P14679 whole entry): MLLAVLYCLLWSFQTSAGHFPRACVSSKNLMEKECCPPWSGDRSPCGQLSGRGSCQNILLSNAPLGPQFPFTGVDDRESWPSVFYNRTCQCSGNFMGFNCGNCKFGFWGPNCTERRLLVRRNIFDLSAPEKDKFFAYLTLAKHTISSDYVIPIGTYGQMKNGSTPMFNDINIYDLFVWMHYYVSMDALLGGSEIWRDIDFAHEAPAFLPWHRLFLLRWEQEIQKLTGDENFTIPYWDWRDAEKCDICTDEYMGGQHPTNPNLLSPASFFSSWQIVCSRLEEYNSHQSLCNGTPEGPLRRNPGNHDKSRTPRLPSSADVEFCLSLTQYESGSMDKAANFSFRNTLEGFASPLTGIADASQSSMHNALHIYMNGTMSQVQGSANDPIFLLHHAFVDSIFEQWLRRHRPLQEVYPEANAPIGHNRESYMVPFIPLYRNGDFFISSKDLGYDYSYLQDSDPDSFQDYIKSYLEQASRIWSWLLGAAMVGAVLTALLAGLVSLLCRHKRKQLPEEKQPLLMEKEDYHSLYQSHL
# [4] = target: T3, Tyrosinase (Homo sapiens) (UniProt P14679); experiment: Ratio of kojic acid IC50 to compound IC50 for human tyrosinase
# T3 sequence (whole entry): T2 sequence (P14679 whole entry)
# Tyrosinase [5] = target: T2, Tyrosinase
# Description: (§1) Competitive inhibition of tyrosinase in human G-361 cells incubated for 10 mins measured for 2 hrs by MBTH-based spectrophotometry
# [6] = target: T3, Tyrosinase (Homo sapiens); experiment: Inhibition of tyrosinase in human G-361 cells at >200 uM incubated for 10 mins measured for 2 hrs by MBTH-based spectrophotometry; assay type: cell-based
# [7] = target: T3, Tyrosinase (Homo sapiens); settings: G-361
# Description: as §1
compound,measurement,setting,value
O=c1cc(-c2ccc(O)c(O)c2)oc2c(O)c(O)ccc12,IC50,Tyrosinase [1],70 nM
CCCCC/C=C\C/C=C\CCCCCCCC(=O)OCC(COC(=O)CCCCCCC/C=C\C/C=C\CCCCC)OC(=O)CCCCCCC/C=C\C/C=C\CCCCC,IC50,Tyrosinase [2],8.4 µM
O=C(NCCc1c[nH]c2cc(O)ccc12)c1cc(O)cc(O)c1,IC50,Tyrosinase [3],9.1 µM
same,Ratio IC50,[4],34.1
CC(C)c1ccccc(=O)c1O [ALPHA-THUJAPLICIN],IC50,Tyrosinase [5],> 1000 µM
same,inhibition,[6],Active
same,Ratio IC50,[4],< 0.57
CC(C)c1ccc(O)c(=O)cc1 [GAMMA-THUJAPLICIN],IC50,Tyrosinase [5],1.15 µM
same,inhibition,[7],Dose-dependent effect
same,Ratio IC50,[4],497
CC(C)c1cccc(=O)c(O)c1 [HINOKITIOL],IC50,Tyrosinase [5],8.98 µM
same,inhibition,[7],Dose-dependent effect
same,Ratio IC50,[4],63.6
O=Cc1ccc(O)c(O)c1 [PROTOCATECHUALDEHYDE],IC50,Tyrosinase [1],2900 nM
CCCCCCCC/C=C\CCCCCCCC(=O)OCC(COC(=O)CCCCCCC/C=C\CCCCCCCC)OC(=O)CCCCCCC/C=C\CCCCCCCC [TRIOLEIN],IC50,Tyrosinase [2],30 µM
